Results: PubChem BioAssay AID1963862 (Molecular Pharmacology Branch, DTP, NCI, 2024)

Tested on: KRAS patient-derived spheroids with HUVEC/MSC, viability
Test: Anticancer human tumor 941728-121-R-J1-PDC patient-derived lung adenocarcinoma cell line growth inhibition [KRAS2]
Conditions: for IC50: curve of first compound; for viability, T/C: stronger effect = lower value
Excerpt: Multicellular complex tumor spheroid response to RAS pathway inhibitors in combination with a targeted agents in patient-derived cell lines with oncogenic KRAS variants from multiple cancer types
A high-throughput screen of multi-cell type tumor spheroids was designed to identify active combinations of targeted small molecules and KRAS pathway inhibitors. Complex spheroids include a stromal component modeled by human endothelial cells (HUVEC) and fibroblasts modeled by human mesenchymal stem cells (MSCs). The concentration ranges selected for each drug and investigational agent were based upon clinically achievable concentrations if the clinical Cmax of the agent was known.
Compounds. The drugs and investigational agents: BI-3406 (NSC825286), BAY-293 (NSC824723), batoprotafib (TNO155; NSC825523), sotorasib (AMG 510; NSC818433), MRTX1257 (NSC819558), elimusertib (BAY 1895344; NSC800525), molibresib (GSK525762; NSC774829), temuterkib (LY3214996; NSC803410), venetoclax (NSC766270), alisertib (NSC759677), olaparib (NSC753686), talazoparib (NSC767125), erdafitinib (NSC781556), ipatasertib (NSC767898), cabozantinib (NSC761068), nintedanib (NSC756659), abemaciclib (NSC768073), docetaxel (NSC628503), trametinib (NSC758246), and sapanisertib (NSC764658) were obtained from the National Cancer Institute (NCI) Developmental Therapeutics Program Chemical Repository. The FDA-approved anticancer drug set is available from the Developmental Therapeutics Program. […] The stock solutions were prepared in dimethyl sulfoxide (DMSO, Sigma-Aldrich, St. Louis, MO, cat. D2650) at 800-fold the tested concentration and stored at -70 degrees C prior to their use. All drugs and investigational agents were tested over a range starting from a high concentration at or near the clinical Cmax and decreasing in half-log increments. If the clinical Cmax for an agent had not been determined, the highest concentration tested was 10 microM.
Cell Culture. All cells were maintained in an incubator at 37 degrees C and 5% CO2 with 95% humidity. The PDC lines were cultured according to standard operating procedures established by the NCI PDMR (https://pdmr.cancer.gov/sops/default.htm). Briefly, all PDCs were thawed and cultured in Matrigel-coated flasks prepared with a working solution of 1X Ham's F-12 nutrient mix, without supplementation (Invitrogen, Waltham, MA, cat. 11765054), 100 U/mL penicillin-streptomycin (Invitrogen, cat. 15140122), and 2.5% Matrigel (Corning Inc., Corning, NY, cat. 354248) for the first three passages. All PDCs were cultured in complete DMEM/F-12 media containing advanced DMEM/F-12 (Invitrogen, cat. 12634028), 4.9% defined fetal bovine serum, heat inactivated (HyClone Laboratories Inc., Logan, UT, cat. SH30070.03HI), 389 ng/mL hydrocortisone (Sigma-Aldrich, cat. H4001), 9.7 ng/mL human EGF recombinant protein (Invitrogen, cat. PHG0313), 23.4 microg/mL adenine (Sigma-Aldrich, cat. A2786), 97.3 U/mL penicillin-streptomycin (Invitrogen, cat. 15140122), 1.9 mM L-glutamine (Invitrogen, cat. 25030081), and 9.7 microM Y-27632 dihydrochloride (Tocris Bioscience, Bristol, United Kingdom, cat. 1254). The PDCs were cultured in complete DMEM/F12 media without 9.7 microM Y-27632 dihydrochloride for at least two passages prior to the screen. The established cell line HOP-62 was cultured in RPMI 1640 medium, HEPES (Invitrogen, cat. 22400105) with 10% defined fetal bovine serum (HyClone Laboratories Inc., cat. SH30070.03) and 2 mM L-glutamine (Invitrogen, cat. 25030081). The pooled donor HUVEC were cultured in endothelial cell growth medium 2 (PromoCell, Heidelberg, Germany, cat. C-22011) and the hMSC were cultured in mesenchymal stem cell growth medium 2 (PromoCell, cat. C-28009). For all experiments, HUVEC and hMSC were used at passages </=5, while the malignant cell lines were used at passages </=15. […]

[1] = second compound 0.0316 µM, first compound 0.01 µM
[2] = second compound 0.0316 µM, first compound 0.0316 µM
[3] = second compound 0.0316 µM, first compound 0.1 µM
[4] = second compound 0.0316 µM, first compound 0.316 µM
[5] = second compound 0.0316 µM, first compound 1 µM
[6] = second compound 0.0316 µM, first compound 3.16 µM
[7] = second compound 0.1 µM, first compound 0.01 µM
[8] = second compound 0.1 µM, first compound 0.0316 µM
[9] = second compound 0.1 µM, first compound 0.1 µM
[10] = second compound 0.1 µM, first compound 0.316 µM
[11] = second compound 0.1 µM, first compound 1 µM
[12] = second compound 0.1 µM, first compound 3.16 µM
[13] = second compound 0.316 µM, first compound 0.01 µM
[14] = second compound 0.316 µM, first compound 0.0316 µM
[15] = second compound 0.316 µM, first compound 0.1 µM
[16] = second compound 0.316 µM, first compound 0.316 µM
[17] = second compound 0.316 µM, first compound 1 µM
[18] = second compound 0.316 µM, first compound 3.16 µM
[19] = second compound 1 µM, first compound 0.01 µM
[20] = second compound 1 µM, first compound 0.0316 µM
[21] = second compound 1 µM, first compound 0.1 µM
[22] = second compound 1 µM, first compound 0.316 µM
[23] = second compound 1 µM, first compound 1 µM
[24] = second compound 1 µM, first compound 3.16 µM
[25] = second compound 3.16 µM, first compound 0.01 µM
[26] = second compound 3.16 µM, first compound 0.0316 µM
[27] = second compound 3.16 µM, first compound 0.1 µM
[28] = second compound 3.16 µM, first compound 0.316 µM
[29] = second compound 3.16 µM, first compound 1 µM
[30] = second compound 3.16 µM, first compound 3.16 µM
[31] = second compound 0.0316 µM, first compound 10 µM
[32] = second compound 0.1 µM, first compound 10 µM
[33] = second compound 0.316 µM, first compound 10 µM
[34] = second compound 1 µM, first compound 10 µM
[35] = second compound 3.16 µM, first compound 10 µM
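Note: spheroids exposed to agents for seven days before readout.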

Structure (SMILES) | IC50 (second compound 0.0316 µM) [nM] | IC50 (second compound 0.1 µM) [nM] | IC50 (second compound 0.316 µM) [nM] | IC50 (second compound 1 µM) [nM] | IC50 (second compound 3.16 µM) [nM] | viability, T/C [2] [%] | viability, T/C [3] [%] | viability, T/C [4] [%] | viability, T/C [5] [%] | viability, T/C [6] [%] | viability, T/C [8] [%] | viability, T/C [9] [%] | viability, T/C [10] [%] | viability, T/C [11] [%] | viability, T/C [14] [%] | viability, T/C [15] [%] | viability, T/C [20] [%] | viability, T/C [21] [%] | viability, T/C [26] [%] | viability, T/C [27] [%] | further results
CC(=O)OC12COC1CC(O)C1(C)C(=O)C(O)C3=C(C)C(OC(=O)C(O)C(NC(=O)OC(C)(C)C)c4ccccc4)CC(O)(C(OC(=O)c4ccccc4)C21)C3(C)C (stereo not given) + C=CC(=O)N1CCN(c2nc(OCC3CCCN3C)nc3c2CCN(c2cccc4cccc(C)c24)C3)CC1CC#N | < 10 | < 10 | < 10 | < 10 | < 10 | 28.4 | 26.8 | 25.7 | 29.1 | 26.7 | 22.2 | 21.9 | 22.9 | 24.6 | 21.6 | 21.1 | 23.4 | 21.1 | 33.1 | 26.4 | viability, T/C [1]: 28.2%; viability, T/C [7]: 24.6%; viability, T/C [12]: 26.2%; viability, T/C [13]: 22.8%; viability, T/C [16]: 22.1%; viability, T/C [17]: 21.1%; viability, T/C [18]: 24.4%; viability, T/C [19]: 21.2%; viability, T/C [22]: 19.8%; viability, T/C [23]: 21.7%; viability, T/C [24]: 20.8%; viability, T/C [25]: 27.9%; viability, T/C [28]: 27.3%; viability, T/C [29]: 26.9%; viability, T/C [30]: 27.9%
CN(C)C/C=C/C(=O)Nc1cc2c(Nc3ccc(F)c(Cl)c3)ncnc2cc1O[C@H]1CCOC1 + C=CC(=O)N1CCN(c2nc(OCC3CCCN3C)nc3c2CCN(c2cccc4cccc(C)c24)C3)CC1CC#N | < 0.316 | < 0.316 | < 0.316 | < 0.316 | < 0.316 | 20.5 | 20.6 |  |  |  | 20.4 | 18.6 |  |  | 20.5 | 18.3 | 19.2 | 21.2 | 0.45 | 1.8 | viability, T/C (second compound 0.0316 µM, first compound 0.000316 µM): 22.7%; viability, T/C (second compound 0.0316 µM, first compound 0.001 µM): 22.4%; viability, T/C (second compound 0.0316 µM, first compound 0.00316 µM): 22.2%; viability, T/C [1]: 23.3%; viability, T/C (second compound 0.1 µM, first compound 0.000316 µM): 21.3%; viability, T/C (second compound 0.1 µM, first compound 0.001 µM): 19.3%; viability, T/C (second compound 0.1 µM, first compound 0.00316 µM): 18.8%; viability, T/C [7]: 20.1%; viability, T/C (second compound 0.316 µM, first compound 0.000316 µM): 21.1%; viability, T/C (second compound 0.316 µM, first compound 0.001 µM): 20.9%; viability, T/C (second compound 0.316 µM, first compound 0.00316 µM): 21.4%; viability, T/C [13]: 21.5%; viability, T/C (second compound 1 µM, first compound 0.000316 µM): 21.1%; viability, T/C (second compound 1 µM, first compound 0.001 µM): 21.2%; viability, T/C (second compound 1 µM, first compound 0.00316 µM): 20.9%; viability, T/C [19]: 19.1%; viability, T/C (second compound 3.16 µM, first compound 0.000316 µM): 1.16%; viability, T/C (second compound 3.16 µM, first compound 0.001 µM): 0.2%; viability, T/C (second compound 3.16 µM, first compound 0.00316 µM): 0.46%; viability, T/C [25]: 0.19%
COC(=O)c1ccc2c(C(=Nc3ccc(N(C)C(=O)CN4CCN(C)CC4)cc3)c3ccccc3)c(O)[nH]c2c1 + C=CC(=O)N1CCN(c2nc(OCC3CCCN3C)nc3c2CCN(c2cccc4cccc(C)c24)C3)CC1CC#N | < 31.6 | < 31.6 | < 31.6 | < 31.6 | < 31.6 | 30.6 | 26.9 | 23.9 | 22.5 | 8.16 | 31.4 | 27 | 23.2 | 18.1 | 29.8 | 26.9 | 24.2 | 23.9 | 0.27 | 0.31 | viability, T/C [31]: 6.26%; viability, T/C [12]: 4.92%; viability, T/C [32]: 5.67%; viability, T/C [16]: 23.7%; viability, T/C [17]: 18.1%; viability, T/C [18]: 4.34%; viability, T/C [33]: 3.09%; viability, T/C [22]: 23.4%; viability, T/C [23]: 13%; viability, T/C [24]: 0.56%; viability, T/C [34]: 0.29%; viability, T/C [28]: 0.12%; viability, T/C [29]: 0.11%; viability, T/C [30]: 0.07%; viability, T/C [35]: 0.11%
O=C(c1cc(Cc2n[nH]c(=O)c3ccccc23)ccc1F)N1CCN(C(=O)C2CC2)CC1 + C=CC(=O)N1CCN(c2nc(OCC3CCCN3C)nc3c2CCN(c2cccc4cccc(C)c24)C3)CC1CC#N | < 31.6 | < 31.6 | < 31.6 | < 31.6 | < 31.6 | 36.5 | 36.5 | 59.6 | 29.1 | 26.9 | 32.3 | 33.3 | 30.5 | 32.5 | 36.1 | 33.7 | 32.6 | 36.2 | 0.38 | 4.45 | viability, T/C [31]: 36.2%; viability, T/C [12]: 30.6%; viability, T/C [32]: 35.4%; viability, T/C [16]: 33.3%; viability, T/C [17]: 33.7%; viability, T/C [18]: 33.9%; viability, T/C [33]: 34.2%; viability, T/C [22]: 35.2%; viability, T/C [23]: 32.8%; viability, T/C [24]: 32%; viability, T/C [34]: 35.7%; viability, T/C [28]: 1.13%; viability, T/C [29]: 0.34%; viability, T/C [30]: 0.38%; viability, T/C [35]: 0.53%
